The first data set has as its system RBL-2H3 cells. Nature of the data set: cells. The class given is cell-based, rat.
Conditions: not given
The essentials:
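RBL-2H3 rat basophils sensitized 12-16 h with anti-DNP IgE (0.5 μg/ml), pretreated 90 min at 37° C with compound (DMF 0.25% vehicle), then stimulated 45 min with DNP-BSA (50 ng ml^−1) or ionomycin (1.5 μM). Degranulation read as β-hexosaminidase release.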
As to `COC(=O)c1ccccc1-c1ccc(/C=C2/SC(=S)N(Cc3ccccc3)C2=O)o1` [Molecule C-13, methyl 2-{5-[(3-benzyl-4-oxo-2-thioxo-1,3-thiazolidin-5-ylidene)methyl]-2-furyl}benzoate], the ionomycin-induced degranulation result is given as “not detectably affected”.

The data set is the same for the next values; noted with them: Rattus norvegicus, RBL-2H3, read-out: Degran. IC50: concentration inhibiting mast cell degranulation by 50%.
Take `COC(=O)c1ccccc1-c1ccc(/C=C2/SC(=S)N(Cc3ccccc3)C2=O)o1` [Molecule C-13, methyl 2-{5-[(3-benzyl-4-oxo-2-thioxo-1,3-thiazolidin-5-ylidene)methyl]-2-furyl}benzoate]: the IC50 is 1 µg/mL.

The same data set, now with this note: Rattus norvegicus; RBL-2H3 cells, 0 to 40 μM; read-out: concentration inhibiting mast cell degranulation by 50% in vitro.
`COc1cc(-c2nnc(SCC(=O)Nc3ccc(Cl)cc3)n2CCc2ccccc2)cc(OC)c1OC` [Molecule 59]: the IC50 was around 5 µM.
Take `CCOC(=O)c1ccc(NC(=O)CC2C(=O)N(c3ccc(Cl)cc3)C(=S)N2Cc2cccnc2)cc1` (centres unmarked) [Molecule 61]: the IC50 is around 5 µM.

Staying with this data set, now noted: Rattus norvegicus; RBL-2H3 cells; read-out: Degran. IC50: concentration inhibiting mast cell degranulation by 50%.
As for `O=C(C1=C(O)C(=O)N(Cc2cccnc2)C1c1cccc(Oc2ccccc2)c1)c1ccc(Cl)cc1` (centres unmarked) [Molecule 1, 4-(4-chlorobenzoyl)-3-hydroxy-5-(3-phenoxyphenyl)-1-(3-pyridinylmethyl)-1,5-dihydro-2H-pyrrol-2-one], the IC50 is above 10 µg/mL.
`COc1ccc(C2C(C(=O)c3cccs3)=C(O)C(=O)N2CCCn2ccnc2)c(OC)c1` (centres unmarked) [Molecule 2]: the IC50 was above 10 µg/mL.
Still for that read-out and setting: for `CCOC(=O)C1=C(C)NC2=C(C(=O)c3ccccc32)C1c1cc(Br)ccc1OCC(=O)O` (centres unmarked) [Molecule 3, {4-bromo-2-[3-(ethoxy carbonyl)-2-methyl-5-oxo-4,5-dihydro-1H-indeno[1,2-b]pyridin-4-yl]phenoxy} acetic acid] the value was above 10 µg/mL; for `COc1cccc(C2C(C(=O)c3ccc(C)cc3)=C(O)C(=O)N2CCCN2CCOCC2)c1` (centres unmarked) [Molecule 4, 3-hydroxy-5-(3-methoxyphenyl)-4-(4-methylbenzoyl)-1-[3-(4-morpholinyl)propyl]-1,5-dihydro-2H-pyrrol-2-one], above 10 µg/mL.
On the same count and under the same terms, for `CCOC(=O)c1ccc(N2C(=O)C(O)=C(C(=O)c3ccccc3)C2c2ccc(ON)cc2OC)cc1` (centres unmarked) [Molecule 6] the value was above 10 µg/mL.
The same measure, in the same setting: for `CCOC(=O)c1sc(N2C(=O)C(O)=C(C(=O)c3ccc(F)cc3)C2c2ccc(C)cc2)nc1C` (centres unmarked) [Molecule 10, ethyl 2-[3-(4-fluorobenzoyl)-4-hydroxy-2-(4-methylphenyl)-5-oxo-2,5-dihydro-1H-pyrrol-1-yl]-4-methyl-1,3-thiazole-5-carboxylate] the value was around 10 µg/mL; for `COc1ccccc1C(=O)Nc1ccc(-c2nnc(SCC(=O)c3ccccc3)n2C)cc1` [Molecule 15, 2-methoxy-N-(4-(4-methyl-5-[(2-oxo-2-phenylethyl)thio]-4H-1,2,4-triazol-3-yl)phenyl)benzamide], around 2.5 µg/mL; for `COc1ccc(C)cc1NC(=O)c1ccc(CN2CCC(Cc3ccccc3)CC2)cc1` [Molecule 17, 4-[(4-benzyl-1-piperidinyl)methyl}-N-(2-methoxy-5-methylphenyl)benzamide], above 10 µg/mL.
Take `COc1ccc(S(=O)(=O)N(CCc2ccccc2)CC(=O)Nc2ccc(C(N)=O)cc2)cc1` [Molecule 18]: the IC50 was above 10 µg/mL.
Take `O=C(NCc1nnc(NCc2nc3ccccc3c(=O)[nH]2)n1-c1ccccc1)c1ccccc1F` [Molecule 29]: the IC50 is around 10 µg/mL.
Same read-out and setting: for `O=C(Nc1ccccc1)c1ccc(NCCN2CCOCC2)c(S(=O)(=O)N2CCOCC2)c1` [Molecule 46, 4-{[2-(4-morpholinyl)ethyl]amino}-3-(4-morpholinylsulphonyl)-N-phenylbenzamide] the value was above 10 µg/mL; for `Cc1cc(C(=O)Nc2ccccc2C(=O)O)ccc1NC(=O)COc1ccc(C(C)C)cc1` [Molecule 49, 2-[(4-{[(4-isopropylphenoxy)acetyl]amino}-3-methylbenzoyl)amino] benzoic acid], around 10 µg/mL; for `CCOC(=O)c1ccc(NC(=O)CSc2nnc(-c3ccco3)c(-c3ccco3)n2)cc1` [Molecule 54, ethyl 4-({[(5,6-di-2-furyl-1,2,4-triazin-3-yl)thio]acetyl}amino)benzoate], around 5 µg/mL.
On the same count and under the same terms, for `COc1cc(-c2nnc(SCC(=O)Nc3ccc(Cl)cc3)n2CCc2ccccc2)cc(OC)c1OC` [Molecule 59] the value was around 2 µg/mL.
Still for that read-out and setting: for `CCOC(=O)c1ccc(NC(=O)CC2C(=O)N(c3ccc(Cl)cc3)C(=S)N2Cc2cccnc2)cc1` (centres unmarked) [Molecule 61] the value was around 2 µg/mL; for `C=CCn1c(SCC(=O)Nc2cccc(OC)c2)nnc1C(C)NC(=O)c1ccccc1` (centres unmarked) [Molecule 66, N-{1-[4-allyl-5-({2-[(3-methoxyphenyl)amino]-2-oxoethyl}thio)-4H-1,2,4-triazol-3-yl]ethyl} benzamide], around 5 µg/mL.
Turning to `C=CCn1c(CNC(=O)c2cccc(C)c2)cnc1SCC(=O)Nc1cccc(C(=O)OC(C)C)c1` [Molecule 75], the IC50 is around 5 µg/mL.
The same measure, in the same setting: as for `CCn1c(CCC(=O)c2ccc(Cl)cc2)nnc1SCC(=O)Nc1ccc(Br)c(C)c1C` [Molecule 82], the figure is around 7 µg/mL.
Consider `CCOc1ccc(NC(=O)CC2C(=O)N(c3ccc(OC)cc3)C(=S)N2CCN2CCOCC2)cc1` (centres unmarked) [Molecule 84, N-(4-ethoxyphenyl)-2-{1-(4-methoxyphenyl)-3-[2-(4-morpholinyl)ethyl]-5-oxo-2-thioxo-4-imidazolidinyl}acetamide], for which the IC50 was around 7 µg/mL.

These data come from patent US9504676B2, “Molecules inhibiting a metabolic pathway involving the Syk protein tyrosine kinase and method for identifying said molecules” (CENTRE NATIONAL DE LA RECHERCHE SCIENTIFIQUE, priority 2008, dated 2016).
